What was measured:
breast cancer = details: result in words; see Cancer Research, Vol. 42, Suppl. 8:3261s (1982); cited from earlier work
[1] = test system: DMBA-induced mammary tumors; assay: DMBA-induced Mammary Tumor Inhibition; type: in vivo, female Sprague-Dawley rats; details: Test I, 300 ppm in diet (approx. 30 mg/kg/day), 5 weeks
Description: Mammary tumors were produced in female Sprague-Dawley rats which were 50-60 days old by the gavage administration of 20 mg of 7,12-dimethylbenz[a]anthracene (DMBA). About six weeks after DMBA administration, the mammary glands were palpated at weekly intervals for the appearance of tumors. Whenever one or more tumors appeared and were measurable in an animal, that animal was selected for experimentation. […] Each control and test group contained 8 animals. The test compound was administered mixed into the food at a concentration of 300 ppm (corresponding to an appropriate daily dose of 30 mg/kg). Every experiment included a group of control rats having tumors and were given food without the compound admixed. […] The area of each tumor was calculated by multiplying the shortest and longest diameters of the tumor. The treatment and measurement of animals continued for 4-5 weeks at which time the final areas of the tumors were determined. For each compound (and control) at each dose level, the change in the mean tumor area was determined.
*dosed in the diet. 300 ppm corresponds to approximately 30 mg/kg/day.

[2] = test system: estrogen synthesis (aromatization); uterus; assay: Estrogen Synthesis Inhibition in Rats: uterine weight of testosterone propionate-treated immature rats; type: in vivo, immature female Wistar rats; details: Test II, 7 days
Description: Immature female Wistar rats (45-55 grams) were divided into control and test groups of 2-8 animals each. Test compounds were administered for seven days as a component of the diet. Control animals received diet without the test compound. Beginning on the fourth day of the test, all animals treated with the test compound and one half of the control animals were given a subcutaneous injection of 1.0 mg of testosterone propionate in corn oil. The remaining control animals received only an equivalent volume of corn oil. On the seventh day of the test, rats treated with testosterone propionate were injected subcutaneously with 100 μCi of [^3 H]-testosterone in 50 μl of 3:1 (v/v) saline-ethanol.
After two hours, the animals were killed by decapitation. Uteri were isolated, trimmed of extraneous connective tissue, and weighed. […] In the control animals treated with testosterone propionate, estrogens produced by aromatization stimulated the uterus resulting in an increase in weight.
*ppm in feed. 300 ppm corresponds to approximately 30 mg/kg/day; 200 ppm
corresponds to approximately 20 mg/kg/day; 30 ppm corresponds to
approximately 3 mg/kg/day.

aromatase = target: T1, aromatase (Rattus norvegicus, UniProt P22443); assay: biochemical; details: rat ovarian microsomes; substrate (androstenedione) 0.1 μM
T1 sequence (P22443 1-508): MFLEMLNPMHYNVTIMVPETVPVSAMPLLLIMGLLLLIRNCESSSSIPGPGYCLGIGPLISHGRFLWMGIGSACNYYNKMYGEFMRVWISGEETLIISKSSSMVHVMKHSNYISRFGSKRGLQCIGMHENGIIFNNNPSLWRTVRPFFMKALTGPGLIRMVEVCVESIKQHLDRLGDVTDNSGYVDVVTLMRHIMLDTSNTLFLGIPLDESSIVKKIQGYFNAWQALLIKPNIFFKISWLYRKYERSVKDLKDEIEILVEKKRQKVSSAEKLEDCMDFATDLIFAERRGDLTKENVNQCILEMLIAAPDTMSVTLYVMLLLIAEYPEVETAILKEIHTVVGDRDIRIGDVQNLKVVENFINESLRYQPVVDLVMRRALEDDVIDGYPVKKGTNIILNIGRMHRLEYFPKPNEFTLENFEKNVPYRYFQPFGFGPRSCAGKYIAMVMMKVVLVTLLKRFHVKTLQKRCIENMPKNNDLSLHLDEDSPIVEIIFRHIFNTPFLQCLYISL
Description: In this test system, ovarian microsomes are obtained from rats treated with pregnant mares serum gonadotropin. Test compounds are added to reaction vials containing 0.1 μM 4-androstene-3,17-dione, 100,000 dpm 1,2[^3 H]-androstenedione, the microsomes and a NADPH generating system. The concentrations of the inhibitors tested ranged between 0.005 and 10 μM.

[3] = test system: estrogen synthesis (ovarian estradiol, estrone, estriol); assay: Estrogen Synthesis Inhibition in Rats: ovarian steroid concentration after [3H]-testosterone; type: in vivo, immature female Wistar rats; details: Test II, 7 days; for Mean Steroid Concentration, estriol: testosterone-treated control 1.98
Description: Test compounds were administered for seven days as a component of the diet. Control animals received diet without the test compound. Beginning on the fourth day of the test, all animals treated with the test compound and one half of the control animals were given a subcutaneous injection of 1.0 mg of testosterone propionate in corn oil. The remaining control animals received only an equivalent volume of corn oil.
The ovarian steroids were extracted with 1.5 ml of 9:1 (v/v) toluene/ethanol to which had been added 25 to 100 mcg each of unlabelled estradiol, estriol, and estrone, and approximately 1000 dpm of [^14 C]-estradiol. The samples were vortexed, centrifuged at 500×g for 10 minutes, and the organic phase was transferred to a conical vial. Two additional extractions were performed on the residue in the same way. The pooled organic extracts were evaporated for subsequent thin-layer chromatography.
Ovarian proteins were precipitated by the addition of 5.0 ml of ethanol to the remaining aqueous phase. After an overnight incubation at 4° C., the samples were centrifuged at 1500×g for 10 minutes. The supernatant was discarded and the pellet was dissolved in 0.3N potassium hydroxide.
The organic residue from each above extraction was redissolved in 9:1 (v/v) dichloromethane/methanol. The solution of each sample was applied to separate silica gel thin layer chromatography plates which contained a fluorescent indicator. The plates were developed in the first dimension with 160:38:1.5:0.5 (v/v/v/v) dichloromethane/ethyl acetate/methanol/acetic acid to within 3 cm of the top of the plate. After air-drying, the plate was developed in the second dimension with 180:19:1 (v/v/v) dichloromethane/methanol/ammonium hydroxide.
The spots were scraped from the plate using a glass wool plugged Pasteur pipet attached to a vacuum line. The steroids were eluted directly into scintillation vials by the addition of 0.2 ml of dichloromethane followed by two washes each of 2.0 ml of methanol. The organic solvent was evaporated and 10.0 ml of scintillation fluid (Beckman Ready Solv-NA) was added to the vials. Samples were analyzed by liquid scintillation spectrometry. Corrections were made based on the recoveries of the [^14 C]-steroid. Steroid concentrations are expressed as femtomoles per milligram protein.

SMILES	effect in treatment of breast cancer (breast cancer)	Mean Tumor Area, Start ([1]; baseline, control 73.9) [mm^2]	Mean Tumor Area, Finish ([1]; control 1140.0) [mm^2]	Mean Uterine Weight ([2]; 30 ppm in feed (approx. 3 mg/kg/day), testosterone-treated control 176.7) [mg]	Mean Uterine Weight ([2]; 300 ppm in feed (approx. 30 mg/kg/day), value marked + (p < 0.05 vs testosterone-treated control, 176.7)) [mg]	EC50 (aromatase) [µM]	Mean Steroid Concentration, estrone ([3]; 30 ppm in feed (approx. 3 mg/kg/day), testosterone-treated control 0.64)	Mean Steroid Concentration, estriol ([3]; 30 ppm in feed (approx. 3 mg/kg/day))	Mean Steroid Concentration, estradiol ([3]; 30 ppm in feed (approx. 3 mg/kg/day), testosterone-treated control 2.07)	Mean Steroid Concentration, estriol ([3]; 300 ppm in feed (approx. 30 mg/kg/day))	Mean Steroid Concentration, estrone ([3]; 300 ppm in feed (approx. 30 mg/kg/day), value marked + (p < 0.05 vs testosterone-treated control, 0.64))	Mean Steroid Concentration, estradiol ([3]; 300 ppm in feed (approx. 30 mg/kg/day), value marked + (p < 0.05 vs testosterone-treated control, 2.07))
CCC1(c2ccc(N)cc2)CCC(=O)NC1=O (stereo not shown) [aminoglutethimide]	beneficial effect in treatment of breast cancer	–	–	–	–	–	–	–	–	–	–	–
C[C@]12C=CC(=O)C=C1CC[C@@H]1[C@@H]2CC[C@]2(C)OC(=O)CC[C@@H]12 [testolactone]	beneficial effect in treatment of breast cancer	–	–	–	–	–	–	–	–	–	–	–
Fc1ccc(N(Cc2cccnc2)C2=NCCS2)c(F)c1 [N--(2,4-difluorophenyl)-N--(4,5-dihydro-2-thiazolyl)-3-pyridinemethanamine]	–	83.6	536.0	140.0	104.5	0.028	0.65 femtomoles per milligram of protein	1.56 femtomoles per milligram of protein	1.27 femtomoles per milligram of protein	1.18 femtomoles per milligram of protein	0.31 femtomoles per milligram of protein	1.05 femtomoles per milligram of protein

Reference: patent US4767770A, “Method of inhibiting aromatase” (Eli Lilly and Company, priority 1984, dated 1988)
